The source of these data is ChEMBL document CHEMBL3526034 (Drug Metab Dispos, 2013).

Data set [1] concerns the target Cytochrome P450 3A4 (Homo sapiens, UniProt P08684). Description: Drug level in supersomes expressing human recombinant CYP3A4 treated with [14C]DTG at 5 uM after 120 mins by radio-HPLC analysis. In kind it is ADME. Particulars: recombinant enzyme, 2 h.
A short description of data set [2]: Drug level in human urine treated with parent drug [14C]DTG at 20 mg, po. In kind it is ADME, tissue-based. Particulars: in vivo.
Data set [3] deals with T1, UDP-glucuronosyltransferase 1A1 (Homo sapiens, UniProt P22309).
T1 sequence (P22309 whole entry): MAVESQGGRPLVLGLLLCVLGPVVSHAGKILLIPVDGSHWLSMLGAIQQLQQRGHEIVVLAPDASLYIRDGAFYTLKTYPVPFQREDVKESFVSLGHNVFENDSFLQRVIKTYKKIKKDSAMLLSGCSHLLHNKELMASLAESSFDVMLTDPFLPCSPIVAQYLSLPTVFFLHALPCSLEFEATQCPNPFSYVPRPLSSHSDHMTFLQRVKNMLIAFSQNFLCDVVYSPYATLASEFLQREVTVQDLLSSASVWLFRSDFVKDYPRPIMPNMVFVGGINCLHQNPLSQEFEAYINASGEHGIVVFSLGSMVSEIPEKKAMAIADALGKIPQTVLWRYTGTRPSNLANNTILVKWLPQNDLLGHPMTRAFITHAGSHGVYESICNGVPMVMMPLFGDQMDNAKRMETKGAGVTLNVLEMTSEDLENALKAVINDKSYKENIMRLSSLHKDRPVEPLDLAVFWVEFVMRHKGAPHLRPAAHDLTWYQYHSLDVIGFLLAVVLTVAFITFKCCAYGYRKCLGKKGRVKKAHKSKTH
Description: Drug level assessed as UDPGA-fortified human recombinant UGT1A1-mediated compound formation treated with [14C]DTG at 16 uM after 120 mins by radio-HPLC analysis. The data set is classed as ADME. The following applies: recombinant enzyme, 2 h.

For data set [4], the system named is Hepatocyte. Description: Drug level in human hepatocytes treated with [14C]DTG at 50 uM after 4 to 20 hrs by radio-HPLC analysis. The data set is classed as ADME, cell-based.
Data set [5] relates to Liver microsome. Nature of the data set: Drug level in UDPGA-fortified human liver microsomes treated with [14C]DTG at 16 uM treated for 4 hrs by radio-HPLC analysis. The data set is classed as ADME. (In general: Liver microsomes are vesicles of endoplasmic reticulum, rich in cytochrome P450 enzymes.)
The target in data set [6] is UDP-glucuronosyltransferase 1A3 (Homo sapiens, UniProt P35503). Nature of the data set: Drug level assessed as UDPGA-fortified human recombinant UGT1A3-mediated compound formation treated with [14C]DTG at 16 uM after 120 mins by radio-HPLC analysis. The data set is classed as ADME. The following applies: recombinant enzyme, 2 h.
The target in data set [7] is UDP-glucuronosyltransferase 1A9 (Homo sapiens, UniProt O60656). Description: Drug level assessed as UDPGA-fortified human recombinant UGT1A9-mediated compound formation treated with [14C]DTG at 16 uM after 120 mins by radio-HPLC analysis. The data set is classed as ADME. The following applies: recombinant enzyme, 2 h.
The test system of data set [8] is Liver microsome. Nature of the data set: Drug level in human liver microsomes treated with [14C]DTG at 5 uM after 120 mins by radio-HPLC analysis. The data set is classed as ADME. Particulars: 2 h.
Substrate in data set [9]: C[C@@H]1CCO[C@H]2Cn3cc(C(=O)NCc4ccc(F)cc4F)c(=O)c(O)c3C(=O)N12
Description: Drug metabolism assessed as human recombinant UGT1A1-mediated DTG glucuronide M2 ((2S,3S,4S,5R,6S)-6-((4R,12aS)-9-(2,4-difluorobenzylcarbamoyl)-4-methyl-6,8-dioxo-3,4,6,8,12,12a-hexahydro-2H-[1,3]oxazino[3,2-d]pyrido[1,2-a]pyrazin-7-yloxy)-3,4,5-trihydroxytetrahydro-2H-pyran-2-carboxylic acid) formation after 120 mins by radio-HPLC analysis. The data set is classed as ADME.

Substrate in data set [10]: C[C@@H]1CCO[C@H]2Cn3cc(C(=O)NCc4ccc(F)cc4F)c(=O)c(O)c3C(=O)N12
Description: Drug metabolism in UDPGA-fortified human liver microsomes assessed as UGT1A1-mediated DTG glucuronide M2 ((2S,3S,4S,5R,6S)-6-((4R,12aS)-9-(2,4-difluorobenzylcarbamoyl)-4-methyl-6,8-dioxo-3,4,6,8,12,12a-hexahydro-2H-[1,3]oxazino[3,2-d]pyrido[1,2-a]pyrazin-7-yloxy)-3,4,5-trihydroxytetrahydro-2H-pyran-2-carboxylic acid) formation after 120 mins by radio-HPLC analysis. The data set is classed as ADME.

Chain of UDP-glucuronosyltransferase 1A3 (P35503 whole entry): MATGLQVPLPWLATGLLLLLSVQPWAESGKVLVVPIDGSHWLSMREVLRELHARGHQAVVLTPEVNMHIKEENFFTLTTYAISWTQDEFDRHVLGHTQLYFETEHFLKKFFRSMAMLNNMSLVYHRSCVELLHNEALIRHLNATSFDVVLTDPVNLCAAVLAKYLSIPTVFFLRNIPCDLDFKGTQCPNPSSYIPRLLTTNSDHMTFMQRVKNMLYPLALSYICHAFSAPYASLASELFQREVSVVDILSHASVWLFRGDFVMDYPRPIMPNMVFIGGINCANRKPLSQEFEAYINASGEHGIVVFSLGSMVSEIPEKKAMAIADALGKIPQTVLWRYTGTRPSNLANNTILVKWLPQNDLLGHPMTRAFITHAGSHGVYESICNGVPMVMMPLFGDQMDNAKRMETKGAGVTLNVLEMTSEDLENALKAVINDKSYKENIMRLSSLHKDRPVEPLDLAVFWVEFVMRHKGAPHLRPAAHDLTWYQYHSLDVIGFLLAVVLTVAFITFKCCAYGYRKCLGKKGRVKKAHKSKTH
Chain of Cytochrome P450 3A4 (P08684 whole entry): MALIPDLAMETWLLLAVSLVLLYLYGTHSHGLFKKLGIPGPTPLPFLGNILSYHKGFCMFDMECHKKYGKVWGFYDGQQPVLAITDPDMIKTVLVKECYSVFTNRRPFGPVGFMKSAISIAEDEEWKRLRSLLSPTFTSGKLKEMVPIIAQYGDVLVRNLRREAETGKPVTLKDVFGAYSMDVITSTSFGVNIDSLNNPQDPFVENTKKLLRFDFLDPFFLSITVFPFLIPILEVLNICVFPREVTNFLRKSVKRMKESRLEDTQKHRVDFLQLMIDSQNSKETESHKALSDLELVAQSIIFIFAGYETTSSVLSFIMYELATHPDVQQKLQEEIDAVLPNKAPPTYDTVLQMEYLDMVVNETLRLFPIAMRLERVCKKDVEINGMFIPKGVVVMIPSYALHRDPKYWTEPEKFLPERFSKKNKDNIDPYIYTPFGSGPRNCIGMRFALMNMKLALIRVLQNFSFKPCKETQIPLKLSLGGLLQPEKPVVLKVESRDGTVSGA
Chain of UDP-glucuronosyltransferase 1A9 (O60656 whole entry): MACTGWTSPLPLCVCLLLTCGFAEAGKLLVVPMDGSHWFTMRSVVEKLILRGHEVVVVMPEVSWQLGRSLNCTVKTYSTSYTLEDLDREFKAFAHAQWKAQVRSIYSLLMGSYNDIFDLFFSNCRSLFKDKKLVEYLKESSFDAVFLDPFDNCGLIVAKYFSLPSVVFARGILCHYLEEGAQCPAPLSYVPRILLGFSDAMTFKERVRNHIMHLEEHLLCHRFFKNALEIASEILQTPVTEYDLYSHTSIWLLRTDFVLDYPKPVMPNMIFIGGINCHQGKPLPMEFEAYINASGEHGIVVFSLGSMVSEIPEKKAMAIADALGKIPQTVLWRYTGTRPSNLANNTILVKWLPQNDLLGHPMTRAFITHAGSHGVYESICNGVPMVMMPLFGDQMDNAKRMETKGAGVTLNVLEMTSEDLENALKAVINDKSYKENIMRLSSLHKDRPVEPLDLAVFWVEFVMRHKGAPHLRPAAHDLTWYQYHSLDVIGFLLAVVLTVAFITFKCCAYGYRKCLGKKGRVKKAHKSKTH

For the molecule `C[C@@H]1CCO[C@H]2Cn3cc(C(N)=O)c(=O)c(O)c3C(=O)N12`, in data set [1], the Drug metabolism entry is “metabolite_detected”. Further, the Drug excretion in data set [2] was 3.6%.

On to `C[C@@H]1CCO[C@H]2Cn3cc(C(=O)NCc4ccc(F)cc4F)c(=O)c(O[C@@H]4O[C@H](C(=O)O)[C@@H](O)[C@H](O)[C@H]4O)c3C(=O)N12`, for which the Drug metabolism entry in data set [3], in data set [4], in data set [5], in data set [6] and in data set [7] was “metabolite_detected” in each case. For the same molecule, the Drug excretion in [2] amounted to 18.9%.

As for `C[C@@H]1CCO[C@H]2Cn3cc(C(=O)NC(O)c4ccc(F)cc4F)c(=O)c(O)c3C(=O)N12` (some centres not stated), in data set [8], the Drug metabolism entry was “metabolite_detected”. In [2], the Drug excretion worked out at 3%.

B1: UDP-glucuronosyltransferase 1A1 (Homo sapiens) (protein)
chain: T1 sequence (P22309 whole entry)
Consider B1, for which the Km (commonly the substrate concentration at which the rate is half of its maximum) in data set [9] was 21 µM; in data set [10], 149 µM.
